One assay concerns HepG2 liver cancer cells. The assay is described as follows: Subcutaneous liver cancer xenografts (HepG2). It is filed as in vivo, mouse. Conditions: 50 mg/kg once daily oral gavage, from two weeks after inoculation; p<0.05. An excerpt: (A-C) A preclinical trial of MK-8931 for liver cancer treatment xenograft models. HepG2 liver cancer cells (5×106) were transplanted into mouse right flank through subcutaneous injection to establish subcutaneous liver cancer xenografts. […] Tumors dissected from mice of each group were photographed (B) and weighed (C).

The next assay concerns AGS gastric cancer cells. The assay is described as follows: Subcutaneous stomach cancer xenografts (AGS). It is filed as in vivo, mouse. As to conditions: 50 mg/kg once daily oral gavage, from two weeks after inoculation; p<0.05. An excerpt:
FIG. 22, panels A-C, show treatment with the BACE1 Inhibitor MK-8931 reduced tumor growth of gastric cancer. (A-C) A preclinical trial of MK-8931 for stomach cancer treatment in xenograft models. AGS gastric cancer cells (3×106) were transplanted into mouse right flank through subcutaneous injection to establish subcutaneous stomach cancer xenografts. […] Tumors dissected from mice of each group were photographed (B) and weighed (C).

The subject of assay [1] is iPSC-derived M2 macrophages. The assay is described as follows: Fluorescent phagocytosis assay, iPSC-derived M2 macrophages against lung ADC cells (H1002). The assay is classed as cell-based, human. Details: dose or concentration left out as unconfirmed. Conditions: MK-8931 two days, p<0.01. The source says:
FIG. 10, panels A-C. MK-8931 Treatment Promotes Phagocytosis of iPSC-derived M2 Macrophages against Human Lung ADC Cancer Cells. (A) Immunofluorescent analysis of macrophage marker expression in iPSC-derived M2 macrophages. The iPSC-derived M2 macrophages (GFP+) and the matched iPSCs (GFP+, control) were stained with specific antibodies against IBA1 (total macrophage marker, in red) and FIZZ1 (M2 macrophage marker, in red) and then counterstained with DAPI (in blue). […] (B and C) In vitro macrophage phagocytosis assay showing that the BACE1 inhibitor MK-8931 promoted phagocytosis of the iPSC-derived macrophages against human lung ADC cancer cells. […] Scale bars represent 3 μM. […]
In this assay, we detected macrophage phagocytosis as fluorescent inclusion bodies of the cancer cells (tdTomato^+) within macrophages (GFP^+). […] Thus, potential small molecules that can activate macrophages (GFP*) to phagocytize glioma cells (tdTomato*) could be detected under a fluorescent microscope during the screening (FIG. 1C).
To screen for potential small molecules activating phagocytosis of iPSC-derived M2 macrophages against human cancer cells, GFP^+ iPSC-derived M2 macrophages (5×10^4 cells) were seeded in each well of 24-well plates and treated by small molecules for two days. […] The phagocytosis was measured as the number of inclusion bodies of cancer cells (in red) within macrophages (in green).

In assay [2] the test system is iPSC-derived M2 macrophages. The assay can be described thus: Fluorescent phagocytosis screening assay, iPSC-derived M2 macrophages against glioma cells. The assay is classed as cell-based, human.
The next assay has as its system STAT3 (pSTAT3-Y705). The assay can be described thus: Immunoblot of STAT3 activating phosphorylation in U937-derived M2 macrophages. The assay is classed as cell-based, human. Conditions: MK-8931 50 μg/mL three days. An excerpt: FIG. 7, panels A-G. BACE1 Maintains M2 Macrophages through STAT3 Activation (A) Immunoblot analyses of STAT3 and STAT6 activation (pSTAT3-Y705 and pSTAT6-Y641) in U937-derived M2 macrophages affected by BACE1 knockdown. […] (B) Immunoblot analysis of STAT3 and STAT6 activation (pSTAT3-Y705 and pSTAT6-Y641) in U937-derived M2 macrophages in response to MK-8931 treatment. […] (C-E) In vivo analysis of STAT3 activating phosphorylation in TAMs by double immunofluorescent staining of IBA1 with pSTAT3-Y705 in GBM xenografts treated with MK-8931 or vehicle control. GBM xenografts were established by implantation of glioma stem cells (T4121) through intracranial injection. […] Representative images (C) showing the fluorescent staining of IBA1 (in green) and the pSTAT3 (in red) in MK-8931-treated or control GBM xenografts. […] Scale bar represents 3 μM. Ctl: Control. MK: MK-8931. […] Ectopic expression of STAT3-C attenuated the M2 to M1 switch caused by BACE1 knockdown.
(In general: Immunoblotting shows a protein as a band on a membrane.)

For assay [3], the system named is bone marrow-derived macrophages (BMDMs). The assay is described as follows: Phagocytosis assay, bone marrow-derived macrophages against glioma cells. It is filed as cell-based, mouse. As to conditions: MK-8931 50 μg/mL two days; T4121; p<0.001.
A further assay relates to H1002 lung cancer cells. The assay can be described thus: Subcutaneous lung cancer xenografts (H1002). The assay is classed as in vivo, mouse. Conditions: 50 mg/kg once daily oral gavage, from two weeks after inoculation; p<0.01. As for the experimental part:
(A) Effects of BACE1 inhibitors on lung cancer cell proliferation. H1002 and H146 lung cancer cells were treated with the indicated concentrations of the BACE1 inhibitor AZD3293, MK-8931, AZD3839, or PF-06751979 (PF) for 72 hours. Cell viability was assessed by cell titer assay (n=3). (B-D) A preclinical trial of MK-8931 for lung cancer treatment in xenograft models. H1002 lung cancer cells (5×106) were transplanted into mouse right flank through subcutaneous injection to establish subcutaneous lung cancer xenografts. […] Tumors dissected from mice of each group were photographed (C) and weighed (D). […] Data are shown as mean SEM. p **<0.01, Student's t-test.

For assay [4], the system named is GBM xenografts derived from T4121 GSCs. The assay is described as follows: Intracranial GBM xenografts from T4121 glioma stem cells. The assay is classed as in vivo, mouse.
Setting [5] is: 30 mg/kg once daily oral gavage two weeks, p<0.001.

Consider `CN1C(N)=N[C@](C)(c2cc(NC(=O)c3ccc(F)cn3)ccc2F)CS1(=O)=O` [MK-8931], for which the “tumor growth (tumor weight)” value in the assay on HepG2 liver cancer cells was “significantly inhibited liver tumor growth”. Further, the “tumor growth (tumor weight)” value with AGS gastric cancer cells is “significantly reduced tumor growth of gastric cancer”. Moreover, the “phagocytosis of iPSC-derived macrophages against human lung ADC cancer cells” value in assay [1] is recorded as “potently induced phagocytosis of iPSC-derived macrophages”. In assay [2], the “macrophage phagocytosis against cancer cells” value was “promotes macrophage phagocytosis against cancer cells”. Moreover, the “phagocytosis of iPSC-derived macrophages against human glioma cells (inclusion bodies)” value in assay [2] (MK-8931 50 μg/mL two days, T4121 tdTomato cells co-incubated two hours, p<0.001 vs vehicle) is given as “potently induced phagocytosis of iPSC-derived macrophages”. For the same compound, the “screen of drug libraries and known inhibitors for promoters of macrophage phagocytosis: hit” value in assay [2] (glioma cells and lung ADC cells) is reported as “hits”. Also, in the assay on STAT3 (pSTAT3-Y705), the “activating phosphorylation of STAT3 (pSTAT3-Y705)” value was “significantly down-regulated”. The “phagocytosis of BMDMs against human glioma cells” value in assay [3] is “significantly promoted phagocytosis of BMDMs”. Further, the “tumor growth (tumor weight)” value with H1002 lung cancer cells is recorded as “markedly inhibited lung tumor growth”. In addition, in assay [4] (setting [5]), the “IL1β expression (IHC intensity)” value was “significantly induced IL1β expression”, the “IL10 expression (IHC intensity)” value is listed as “significantly reduced IL10 expression”, the “TGF-β expression (IHC intensity)” value is listed as “significantly reduced TGF-β expression” and the “TNFα expression (IHC intensity)” value is “significantly induced TNFα expression”. Further, the “tumor growth (mean bioluminescence)” value in assay [4] (30 mg/kg/daily oral, Days 7, 14, and 21) is reported as “significantly inhibited tumor growth of GBM xenografts”. Moreover, in assay [4] (30 mg/kg/daily oral, log-rank p<0.01), the “survival (Kaplan-Meier)” value is on record as “significantly extended the survival of mice bearing the GBM tumors”. Also, the “apoptosis (cleaved caspase-3+ cells)” value in assay [4] (30 mg/kg/daily oral, p<0.001) is listed as “significantly increased apoptosis”. Further, in assay [4] (30 mg/kg/daily oral, p<0.01), the “GSC population (SOX2+ cells)” value is “significantly reduced GSCs”, the “proliferative cells (Ki-67+)” value is “significantly reduced proliferative cells” and the “vessel density (CD31)” value was “significantly reduced vessel density”.
